# Laboratory results published in PMC6746272, “Towards discovery of novel scaffold with potent antiangiogenic activity; design, synthesis of pyridazine based compounds, impact of hinge interaction, and accessibility of their bioactive conformation on VEGFR-2 activities” (Journal of Enzyme Inhibition and Medicinal Chemistry, 2019).
# Where two headings read alike, the source gives them in different places.
# Columns and labels:
# VEGFR-2 = biological target: T1, VEGFR-2 (Homo sapiens, UniProt P35968); assay: VEGFR-2 kinase inhibition assay (Alpha Screen, phosphotyrosine antibody); assay type: biochemical; conditions: for inhibition at 10 µM: read-out: VEGFR-2% inhibition
# T1 construct: purchased Millipore, United Kingdom
# T1 sequence (P35968 20-1356): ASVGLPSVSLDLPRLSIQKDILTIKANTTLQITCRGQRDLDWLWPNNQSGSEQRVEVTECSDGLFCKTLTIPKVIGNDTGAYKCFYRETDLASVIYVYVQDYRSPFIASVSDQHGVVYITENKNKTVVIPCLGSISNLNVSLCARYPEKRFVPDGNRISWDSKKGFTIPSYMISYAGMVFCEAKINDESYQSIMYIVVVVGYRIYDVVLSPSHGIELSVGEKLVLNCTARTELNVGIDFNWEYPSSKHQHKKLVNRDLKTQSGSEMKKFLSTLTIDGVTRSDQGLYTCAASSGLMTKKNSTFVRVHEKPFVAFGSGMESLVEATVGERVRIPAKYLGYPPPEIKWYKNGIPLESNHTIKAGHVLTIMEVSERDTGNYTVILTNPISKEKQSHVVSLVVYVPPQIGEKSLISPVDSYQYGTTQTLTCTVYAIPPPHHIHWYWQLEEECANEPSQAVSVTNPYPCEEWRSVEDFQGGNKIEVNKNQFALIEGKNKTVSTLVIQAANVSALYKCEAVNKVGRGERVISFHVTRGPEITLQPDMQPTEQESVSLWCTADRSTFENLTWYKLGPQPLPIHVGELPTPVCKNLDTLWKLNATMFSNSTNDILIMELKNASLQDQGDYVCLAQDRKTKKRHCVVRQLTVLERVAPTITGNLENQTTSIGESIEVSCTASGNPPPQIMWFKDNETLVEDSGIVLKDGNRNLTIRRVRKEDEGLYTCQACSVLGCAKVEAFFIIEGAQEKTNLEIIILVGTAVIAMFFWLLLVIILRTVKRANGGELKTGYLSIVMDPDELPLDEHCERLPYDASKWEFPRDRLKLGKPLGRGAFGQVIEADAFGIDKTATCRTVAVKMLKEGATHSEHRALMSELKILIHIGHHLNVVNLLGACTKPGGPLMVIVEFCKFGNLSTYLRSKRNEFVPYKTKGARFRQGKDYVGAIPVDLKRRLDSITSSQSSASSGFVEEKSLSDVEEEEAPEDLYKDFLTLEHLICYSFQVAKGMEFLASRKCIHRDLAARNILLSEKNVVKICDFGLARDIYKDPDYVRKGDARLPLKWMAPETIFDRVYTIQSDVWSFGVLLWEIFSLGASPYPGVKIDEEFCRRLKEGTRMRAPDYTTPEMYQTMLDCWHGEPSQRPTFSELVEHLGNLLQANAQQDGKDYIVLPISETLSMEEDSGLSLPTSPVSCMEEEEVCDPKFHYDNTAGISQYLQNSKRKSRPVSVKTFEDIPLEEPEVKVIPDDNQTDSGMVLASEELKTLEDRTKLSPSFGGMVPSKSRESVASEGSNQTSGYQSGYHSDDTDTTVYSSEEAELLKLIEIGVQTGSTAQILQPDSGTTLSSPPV
# Description: The kinase activity of VEGFR-2 was measured by use of a phosphotyrosine antibody with the
# Alpha Screen system (PerkinElmer, United States) according to manufacturer’s instructions. Enzyme reactions were performed in 50 mM Tris–HCl pH 7.5, 5 mM MnCl2, 5 mM MgCl2, 0.01% Tween-20 and 2 mM DTT, containing 10 μM ATP, 0.1 μg/mL biotinylated poly-GluTyr (4:1), and 0.1 nM of VEGFR-2 (Millipore, United Kingdom). Prior to catalytic initiation with ATP, the tested compounds at final concentrations ranging from 0 to 100 μg/mL and enzyme were incubated for 5 min at room temperature. […] Plate was incubated in the dark overnight and then read by ELISA Reader (PerkinElmer, United States). Wells containing the substrate and the enzyme without compounds were used as reaction control. Wells containing biotinylated poly-GluTyr (4:1) and enzyme without ATP were used as basal control. Percent inhibition was calculated by the comparison of compounds treated to control incubations.
# NCI 56 cell line panel = assay: NCI primary anticancer assay, mean over panel (SRB); assay type: cell-based, human; conditions: 10–5 M
# Description: The selected compounds were evaluated at primary anticancer assay against a panel of 56 cancer lines at concentration 10–5 M. The human tumour cell lines were derived from nine different cancer types: leukaemia, melanoma, lung, colon, CNS, ovarian, renal, prostate, and breast cancers.
# A 48 h drug exposure protocol was used and sulforhodamine B (SRB) protein assay was applied to estimate the cell viability and growth. The mean percentages GI (GI%) of the tested compounds over the full panel of cell lines are illustrated in Figure 4.
# The cytotoxicity assays were performed at NCI, Bethesda, United States (against 56 cell lines). […]
# Experimental drugs were solubilised in dimethyl sulfoxide at 400-fold the desired final maximum test concentration and stored frozen prior to use. […] Bound stain was subsequently solubilised with 10 mM trizma base, and the absorbance was read on an automated plate reader at a wavelength of 515 nm. […] Using the seven absorbance measurements [time zero (Tz), control growth (C), and test growth in the presence of drug at the five concentration levels (Ti)], the percentage growth was calculated at each of the drug concentration levels. Percentage GI was calculated as: [(Ti – Tz)/(C – Tz)] × 100 for concentrations for which Ti ≥ Tz [(Ti – Tz)/Tz] × 100 for concentrations for which Ti < Tz.
# HUVEC cell line = assay: In vitro HUVEC anti-proliferative assay (alamar Blue); assay type: cell-based, human; conditions: for HUVEC proliferation (%): 72 h, Mean ± SD, n = 3
# Description: Compounds 8c, 8f, 15, 18b, and 18c were selected to be tested for their ability to in vitro inhibit VEGF-induced HUVEC cell line proliferation, using doxorubicin as a control.
# The assay was performed at single dose concentration of 10 µM, where HUVEC, human (Life Technologies # C-003-5C) served as the cells’ source, in Medium 200 (Life Technologies # M-200–500), with large vessel endothelial supplement (LVES) (Life Technologies # A14608-01) and Pen-strep (Hyclone # SV30010). Alamar Blue (Life Technologies # DAL1025) was used as the fluorescent reagent.
# HUVEC cells were cultured in Medium 200 with 2% LVES and 1% Pen-strep. To perform the proliferation assay, HUVEC cells were seeded at 5000 cells/50 μl/well in a 96-well black clear bottom tissue culture plate. Cells were incubated at 37 °C and 5% CO2 overnight to allow them to recover and reattach. Next day cells were treated with test compounds for 72 h. After treatment, cell proliferation was measured by Fluorescent quantitation of alamar Blue reagent. The alamar Blue assay incorporates a fluorometric/colorimetric growth indicator based on detection of metabolic activity. Specifically, resazurin, the active ingredient in the alamar Blue reagent, is blue in colour and virtually non-fluorescent. Upon entering cells, resazurin is reduced to resorufin, a compound that is red in colour and highly fluorescent. Continued cell growth maintains a reduced environment, therefore increasing the overall fluorescence and colour of the media surrounding cells. […] To perform the alamar Blue assay, […] of alamar Blue reagent was added to each well and the plate was incubated at 37 °C for an additional 2 h. Fluorescence intensity was measured at an excitation of 530 nm and an emission of 590 nm using a BioTek SynergyTM 2 microplate reader.
# Cell proliferation assays were performed in triplicate at each concentration. The fluorescent intensity data were analysed using the computer software, Graphpad Prism. In the absence of the compound, the fluorescent intensity (Ft) in each data set was defined as 100%. In the absence of cells, the fluorescent intensity (Fb) in each data set was defined as 0%. The percent cell in the presence of each compound was calculated according to the following equation: % Cell = (F – Fb)/(Ft – Fb), where F = the fluorescent intensity in the presence of the compound, Fb = the fluorescent intensity in the absence of cells, and Ft = the fluorescent intensity in the absence of the compound.
# VEGFR3 = tested on: VEGFR3; set-up: method as in PMID 23123015, PMID 23305239; conditions: read-out: inhibits VEGFR3; cited from earlier work
# PDGFRβ = tested on: PDGFRβ; set-up: method as in PMID 23123015, PMID 23305239; conditions: read-out: inhibits PDGFRβ; cited from earlier work
# PDGFRα = tested on: PDGFRα; set-up: method as in PMID 23123015, PMID 23305239; conditions: read-out: inhibits PDGFRα; cited from earlier work
# VEGFR1 = tested on: VEGFR1; set-up: method as in PMID 23123015, PMID 23305239; conditions: read-out: inhibits VEGFR1; cited from earlier work
# VEGFR2 = tested on: VEGFR2; set-up: method as in PMID 23123015, PMID 23305239; conditions: read-out: inhibits VEGFR2; cited from earlier work
# [1] = single concentration of 10 µM, Mean ± SD, n = 3
# [2] = 5 concentrations 1 nM - 10 µM, Mean ± SD, n = 3, read-out: VEGFR-2 IC50
compound,measurement,setting,value
"1-[4-Chloro-3-(trifluoromethyl)phenyl)-3–(6-morpholino-[1, 2, 4]triazolo[4,3-b]pyridazin-3-yl]urea [Compound 5b]",VEGFR-2% inhibition,VEGFR-2; [1],7.07 ± 1.11%
"CN[C@@H]1C[C@H]2O[C@@](C)([C@@H]1OC)n1c3ccccc3c3c4c(c5c6ccccc6n2c5c31)C(=O)NC4 [Strausporine, staurosporine, reference compound]",inhibition at 10 µM,VEGFR-2,90.5 ± 4.53%
"1-[4-((6-Chloropyridazin-3-yl)amino)phenyl)-3–(3,4-dichlorophenyl]urea [Compound 11d]",VEGFR-2% inhibition,VEGFR-2; [1],11.93 ± 2.25%
O=C(Nc1ccc(Cl)c(Cl)c1)Nc1nnc2ccc(Cl)nn12 [Compound 3],melting point,,173 to 175 °C
same,inhibition at 10 µM,VEGFR-2; [1],3.06 ± 0.45%
"O=C(Nc1ccc(Oc2ccc(=O)[nH]n2)cc1)Nc1ccc(Cl)c(C(F)(F)F)c1 [Compound 18b, 1–(4-Chloro-3-(trifluoromethyl)phenyl)-3–(4-((6-oxo-1,6-dihydropyridazin-3-yl)oxy)phenyl)urea]",inhibitory activity against most of the test cell lines (in words),NCI 56 cell line panel,weak inhibitory activity
same,IC50,VEGFR-2; [2],0.0607 ± 3e-05 µM
same,anti-proliferative activity against HUVEC (in words),HUVEC cell line; 10 μM,potent anti-proliferative activity
same,HUVEC proliferation (%),HUVEC cell line; 10 µM,2.13 ± 0.425%
"1-[3,4-Dichlorophenyl)-3–(6-morpholino-[1, 2, 4]triazolo[4,3-b]pyridazin-3-yl]urea [Compound 5a]",VEGFR-2% inhibition,VEGFR-2; [1],5.07 ± 0.61%
Cc1cc(C(=O)Nc2cc(Oc3ccc4nc(NC(=O)C5CC5)cn4n3)ccc2C)n(C)n1 [TAK-593],IC50,VEGFR3,0.0011 µM
same,IC50,PDGFRβ,0.013 µM
same,IC50,PDGFRα,0.0043 µM
same,IC50,VEGFR1,0.0032 µM
same,IC50,VEGFR2,0.00095 µM
"1-[3-Methoxyphenyl)-3–(6-morpholino-[1, 2, 4]triazolo[4,3-b]pyridazin-3-yl]urea [Compound 5c]",VEGFR-2% inhibition,VEGFR-2; [1],13.10 ± 1.71%
O=C(Nc1ccc(-c2ccc(=O)[nH]n2)cc1)Nc1ccc(Cl)c(C(F)(F)F)c1 [Compound 8c],IC50,VEGFR-2; [2],1.3 ± 0.14 µM
same,HUVEC proliferation (%),HUVEC cell line; 10 µM,14.75 ± 0.059%
"COc1ccc(Nc2ccc(NC(=O)Nc3ccc(Cl)c(C(F)(F)F)c3)cc2)nn1 [Compound 15, 1–(4-Chloro-3-(trifluoromethyl)phenyl)-3–(4-((6-methoxypyridazin-3-yl)amino)phenyl) urea]",IC50,VEGFR-2; [2],1.4 ± 0.12 µM
same,IC50,"VEGFR-2; unit given as nm, read-out: VEGFR-2 IC50 (nm)",1.41 µM
same,HUVEC proliferation (%),HUVEC cell line; 10 µM,64.50 ± 2.017%
same,inhibition at 10 µM,"HUVEC cell line; Homo sapiens, HUVEC, 10 µM, read-out: growth inhibition (GI) percent against HUVEC cell line",35.5%
"1-[4-Chloro-3-(trifluoromethyl)phenyl)-3–(3-(6-oxo-1,6-dihydropyridazin-3-yl)phenyl]urea [Compound 8e]",VEGFR-2% inhibition,VEGFR-2; [1],27.03 ± 3.29%
